Among the data in ChEMBL document CHEMBL1134312, “Design, synthesis, and biological activity of a novel non-cisplatin-type platinum-acridine pharmacophore” (J Med Chem, 2001) are IC50 values, retold here.

Test [1] is described as follows: Cytotoxicity against human ovarian 2008 (wild type) cell lines. Format: functional, cell-based.
The subject of another test is HL-60. In words: Cytotoxicity against HL-60 leukemia cells. In kind it is functional, cell-based, Homo sapiens.
For another test, the system named is C13. Briefly: Cytotoxicity against cisplatin-resistant cell lines (C13*). In kind it is functional, cell-based, Homo sapiens.

With “2-(9-acridiniumylamino)ethyl(methyl)amino(imino)methyl(methyl)amine1-PtCl(en)”, the 50% inhibitory concentration (IC50) in test [1] was 3.8 µM; in the test with HL-60 (hl-60), 0.13 µM; with C13 (c13), 9.6 µM.
Take `CNC(=S)N(C)CCNc1c2ccccc2nc2ccccc12`: the 50% inhibitory concentration (IC50) in test [1] (Homo sapiens) is 2.2 µM; in the test with HL-60 (Homo sapiens, HL-60) it was 11 µM; with C13 (Homo sapiens, C13), 3.7 µM.
“9-acridinylmethylamino-methylaminomethanethione1-PtCl(en)”: the IC50 was > 100 µM in test [1], 75 µM in the test with HL-60 (hl-60) and > 100 µM with C13 (c13).
